The assay addresses T1, human BRD4 bromodomain II (Homo sapiens, UniProt O60885).
T1 construct: human BRD4 bromodomain II [based on Genbank NM_058243, residues 349-460]; host or cells: E. coli
As to the kind of experiment: Bromodomain binding assay (AlphaScreen), BRD4 BDII. The settings on record: AlphaScreen assay, Table C2; read-out: BRD4 BDII IC50. In outline:
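Compounds (10-point, 3-fold series) were preincubated 30 min at room temperature with E. coli-expressed N-terminal His6-tagged BRD4 BDII (residues 349-460) or BDI (residues 44-170) in 50 mM HEPES pH 7.5, 100 mM NaCl, 0.05% CHAPS, 0.1% BSA, 1% DMSO. Displacement of biotinylated tetra-acetylated H4 1-21 peptide was read by AlphaScreen; IC50 from curve fitting.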
`CC(=O)Nc1ccc(-c2cccc(-c3cncnc3)c2O)cc1F` [Example 103, N-(3-Fluoro-2′-hydroxy-3′-(pyrimidin-5-yl)-[1,1′-biphenyl]-4-yl)acetamide]: the IC50 was in the range of 10 to 100 nM.
Turning to `CC(=O)Nc1ccc(-c2cccc(-c3ccc4c(c3)OCCCN4C(C)=O)c2O)cc1F` [Example 104, N-(3′-(5-Acetyl-2,3,4,5-tetrahydrobenzo[b][1,4]oxazepin-8-yl)-3-fluoro-2′-hydroxy-[1,1′-biphenyl]-4-yl)acetamide], the IC50 was > 100 nM.
As for `CC(=O)Nc1ccc(-c2cccc(-c3cc(N4CCN(C(=O)c5ccccc5)CC4)no3)c2O)cc1` [Example 105, N-(3′-(3-(4-Benzoylpiperazin-1-yl)isoxazol-5-yl)-2′-hydroxy-[1,1′-biphenyl]-4-yl)acetamide], the figure is > 100 nM; as for `CC(=O)Nc1ccc(-c2cccc(-c3ccc(OC(C)C)cc3)c2O)cc1F` [Example 106, N-(3-Fluoro-2′-hydroxy-4″-isopropoxy-[1,1′:3′,1″-terphenyl]-4-yl)acetamide], > 100 nM.
Then `CC(=O)Nc1ccc(-c2cccc(-c3cccc(OC(C)C)c3)c2O)cc1F` [Example 107, N-(3-Fluoro-2′-hydroxy-3″-isopropoxy-[1,1′:3′,1″-terphenyl]-4-yl)acetamide], with > 100 nM.
Then `CC(=O)Nc1ccc(-c2cccc(-c3ccc(N4CCNCC4)cc3)c2O)cc1F` [Example 108, N-(3-Fluoro-2′-hydroxy-4″-(piperazin-1-yl)-[1,1′:3′,1″-terphenyl]-4-yl)acetamide], with > 100 nM.
As for `CC(=O)Nc1ccc(-c2cccc(-c3ccc(N)nc3)c2O)cc1F` [Example 110, N-(3′-(6-Aminopyridin-3-yl)-3-fluoro-2′-hydroxy-[1,1′-biphenyl]-4-yl)acetamide], the IC50 was 10 to 100 nM.
Then `CC(=O)Nc1ccc(-c2cccc(-c3ccnc(N)c3)c2O)cc1F` [Example 111, N-(3′-(2-Aminopyridin-4-yl)-3-fluoro-2′-hydroxy-[1,1′-biphenyl]-4-yl)acetamide], with 10 to 100 nM; and `CC(=O)Nc1ccc(-c2cccc(-c3cnc(N4CCNCC4)o3)c2O)cc1F` [Example 112, N-(3-Fluoro-2′-hydroxy-3′-(2-(piperazin-1-yl)oxazol-5-yl)-[1,1′-biphenyl]-4-yl)acetamide], with 10 to 100 nM; and `O=C1CCCN1c1ccc(-c2cccc(-c3cc(N4CCNCC4)no3)c2O)cc1F` [Example 113, 1-(3-Fluoro-2′-hydroxy-3′-(3-(piperazin-1-yl)isoxazol-5-yl)-[1,1′-biphenyl]-4-yl)pyrrolidin-2-one], with 10 to 100 nM.
Regarding `CC(=O)Nc1ccc(-c2cccc(-c3cccc(OC4CCC4)c3)c2O)cc1F` [Example 114, N-(3″-Cyclobutoxy-3-fluoro-2′-hydroxy-[1,1′:3′,1″-terphenyl]-4-yl)acetamide], the IC50 was > 100 nM.
Consider `CC(=O)Nc1ccc(-c2cccc(-c3cccc(OC4CCCC4)c3)c2O)cc1F` [Example 115, N-(3″-(Cyclopentyloxy)-3-fluoro-2′-hydroxy-[1,1′:3′,1″-terphenyl]-4-yl)acetamide], for which the IC50 is > 100 nM.
Then `CCC(=O)Nc1ccc(-c2cccc(-c3cc(N4CCNCC4)no3)c2O)cc1` [Example 116, N-(2′-Hydroxy-3′-(3-(piperazin-1-yl)isoxazol-5-yl)-[1,1′-biphenyl]-4-yl)propionamide 2,2,2-trifluoroacetate], with > 100 nM; and `CC(=O)Nc1ccc(-c2cccc(-c3ccc(OC4CCC4)cc3)c2O)cc1F` [Example 117, N-(4″-Cyclobutoxy-3-fluoro-2′-hydroxy-[1,1′:3′,1″-terphenyl]-4-yl)acetamide], with > 100 nM.
Then `CC(=O)Nc1ccc(-c2cccc(-c3ccc(OC4CCCC4)cc3)c2O)cc1F` [Example 118, N-(4″-(Cyclopentyloxy)-3-fluoro-2′-hydroxy-[1,1′:3′,1″-terphenyl]-4-yl)acetamide], with > 100 nM; and `CC(=O)Nc1ccc(-c2cccc(-c3ccc4occc4c3)c2O)cc1F` [Example 119, N-(3′-(Benzofuran-5-yl)-3-fluoro-2′-hydroxy-[1,1′-biphenyl]-4-yl)acetamide], with > 100 nM.
As for `CC(=O)Nc1ccc(-c2cccc(-c3ccc4ncccc4c3)c2O)cc1F` [Example 120, N-(3-Fluoro-2′-hydroxy-3′-(quinolin-6-yl)-[1,1′-biphenyl]-4-yl)acetamide], the figure is 10 to 100 nM.
Take `CC(=O)Nc1ccc(-c2cccc(-c3ccc4c(c3)ncn4C)c2O)cc1F` [Example 121, N-(3-Fluoro-2′-hydroxy-3′-(1-methyl-1H-benzo[d]imidazol-5-yl)-[1,1′-biphenyl]-4-yl)acetamide]: the IC50 was > 100 nM.
As for `CC(=O)Nc1ccc(-c2cccc(-c3ccc4ocnc4c3)c2O)cc1F` [Example 122, N-(3′-(Benzo[d]oxazol-5-yl)-3-fluoro-2′-hydroxy-[1,1′-biphenyl]-4-yl)acetamide], the figure is > 100 nM; as for `CC(=O)Nc1ccc(-c2cccc(-c3ccc4[nH]ccc4c3)c2O)cc1F` [Example 123, N-(3-Fluoro-2′-hydroxy-3′-(1H-indol-5-yl)-[1,1′-biphenyl]-4-yl)acetamide], > 100 nM; as for `CC(=O)Nc1ccc(-c2cccc(-c3cnc4[nH]ccc4c3)c2O)cc1F` [Example 124, N-(3-fluoro-2′-hydroxy-3′-(1H-pyrrolo[2,3-b]pyridin-5-yl)-[1,1′-biphenyl]-4-yl)acetamide], > 100 nM.
Regarding `CC(=O)Nc1ccc(-c2cccc(-c3cnc4c(ccn4C)c3)c2O)cc1F` [Example 125, N-(3-Fluoro-2′-hydroxy-3′-(1-methyl-1H-pyrrolo[2,3-b]pyridin-5-yl)-[1,1′-biphenyl]-4-yl)acetamide], the IC50 is > 100 nM.
Then `CC(=O)Nc1c(F)cc(-c2cccc(-c3cc(N4CCNCC4)no3)c2O)cc1Cl` [Example 126, N-(3-Chloro-5-fluoro-2′-hydroxy-3′-(3-(piperazin-1-yl)isoxazol-5-yl)-[1,1′-biphenyl]-4-yl)acetamide 2,2,2-trifluoroacetate], with 10 to 100 nM.
On to `COc1cc(-c2cccc(-c3ccc(NC(C)=O)cc3)c2O)ccc1NC(C)=O` [Example 127, N,N′-(2′-Hydroxy-3-methoxy-[1,1′:3′,1″-terphenyl]-4,4″-diyl)diacetamide], for which the IC50 lay in the range of 10 to 100 nM.
With `COc1cc(-c2cccc(-c3cc(F)c(NC(C)=O)c(F)c3)c2O)ccc1NC(C)=O` [Example 128, N,N′-(3,5-Difluoro-2′-hydroxy-3″-methoxy-[1,1′:3′,1″-terphenyl]-4,4″-diyl)diacetamide], the IC50 was 10 to 100 nM.
As to `COc1cc(-c2cccc(-c3ccc(N4CCCC4=O)c(F)c3)c2O)ccc1NC(C)=O` [Example 129, N-(3″-Fluoro-2′-hydroxy-3-methoxy-4″-(2-oxopyrrolidin-1-yl)-[1,1′:3′,1″-terphenyl]-4-yl)acetamide], the IC50 was in the range of 10 to 100 nM.
For `CC(=O)Nc1ccc(-c2cccc(-c3ccc4c(ccn4C)c3)c2O)cc1F` [Example 130, N-(3-Fluoro-2′-hydroxy-3′-(1-methyl-1H-indol-5-yl)-[1,1′-biphenyl]-4-yl)acetamide], the IC50 was > 100 nM.
On to `CC(=O)Nc1ccc(-c2cccc(-c3ccc4[nH]cnc4c3)c2O)cc1F` [Example 131, N-(3′-(1H-Benzo[d]imidazol-5-yl)-3-fluoro-2′-hydroxy-[1,1′-biphenyl]-4-yl)acetamide], for which the IC50 was 10 to 100 nM.
Turning to `COc1cc(-c2cccc(-c3cc(Cl)c(NC(C)=O)c(Cl)c3)c2O)ccc1NC(C)=O` [Example 132, N,N′-(3,5-Dichloro-2′-hydroxy-3″-methoxy-[1,1′:3′,1″-terphenyl]-4,4″-diyl)diacetamide], the IC50 is 10 to 100 nM.
For the compound `COc1cc(-c2cccc(-c3cc(F)c(N4CCCC4=O)c(F)c3)c2O)ccc1NC(C)=O` [Example 133, N-(3″,5″-Difluoro-2′-hydroxy-3-methoxy-4″-(2-oxopyrrolidin-1-yl)-[1,1′:3′,1″-terphenyl]-4-yl)acetamide], the IC50 was in the range of 10 to 100 nM.
Regarding `CC(=O)Nc1ccc(-c2cc(F)cc(-c3cnn(C4CCN(C)CC4)c3)c2O)cc1` [Example 134, N-(5′-fluoro-2′-hydroxy-3′-(1-(1-methylpiperidin-4-yl)-1H-pyrazol-4-yl)-[1,1′-biphenyl]-4-yl)acetamide], the IC50 was > 100 nM.
Then `CC(=O)Nc1ccc(-c2cccc(-c3ccc4c(c3)CCCO4)c2O)cc1F` [Example 136, N-(3′-(chroman-6-yl)-3-fluoro-2′-hydroxy-[1,1′-biphenyl]-4-yl)acetamide], with > 100 nM; and `CC(=O)Nc1ccc(-c2cccc(-c3ccc4c(c3)CCN4)c2O)cc1F` [Example 137, N-(3-fluoro-2′-hydroxy-3′-(indolin-5-yl)-[1,1′-biphenyl]-4-yl)acetamide], with > 100 nM.
As for `CC(=O)Nc1ccc(-c2cccc(-c3ccc(NC(C)=O)c(C(F)(F)F)c3)c2O)cc1F` [Example 138, N,N′-(3-fluoro-2′-hydroxy-3″-(trifluoromethyl)-[1,1′:3′,1″-terphenyl]-4,4″-diyl)diacetamide], the figure is > 100 nM; as for `CC(=O)Nc1ccc(-c2cccc(-c3cc(C)c(NC(C)=O)c(F)c3)c2O)cc1F` [Example 139, N,N′-(3,3″-difluoro-2′-hydroxy-5-methyl-[1,1′:3′,1″-terphenyl]-4,4″-diyl)diacetamide], > 100 nM; as for `O=C1CCCN1c1c(F)cc(-c2cccc(-c3cc(N4CCNCC4)no3)c2O)cc1F` [Example 140, 1-(3,5-difluoro-2′-hydroxy-3′-(3-(piperazin-1-yl)isoxazol-5-yl)-[1,1′-biphenyl]-4-yl)pyrrolidin-2-one], 10 to 100 nM.
As for `COC(=O)Nc1ccc(-c2cccc(-c3cc(N4CCNCC4)no3)c2O)cc1` [Example 141, Methyl (2′-hydroxy-3′-(3-(piperazin-1-yl)isoxazol-5-yl)-[1,1′-biphenyl]-4-yl)carbamate 2,2,2-trifluoroacetate], the figure is > 100 nM.

The record behind these values is patent publication US20250179059A1 (The Regents of the University of California, priority 2021, published 2025).
